Data reported in patent publication US12636305B2, “Composition and method of applying same to increase survival of fish following catch-and-release situations” (Dutch Creek Nymphing, LLC, priority 2022, dated 2026).
Several values for one entry are separate records, joined by “and”; a condition that tells them apart may be missing. Equal entries are not always repeated.

Test system: Zebrafish, Danio rerio
Experiment: Zebrafish swim exhaustion test (vessel plunger model)
Format: in vivo
Design: Immediate recovery 20 min later, % Control (change from the control treatment as a percentage of the control treatment): concentration or dose not given beside the values
Settings: for Immediate recovery 20 min later, % Control (change from the control treatment as a percentage of the control treatment) / Immediate recovery 20 min later, Average: 20 minutes after treatment; for Immediate recovery 20 min later, % Control (change from the control treatment as a percentage of the control treatment): versus water control; for Immediate recovery 20 min later, Average: average of 8 fish; for Immediate recovery 20 min later, Average / Immediate recovery 20 min later (water vortex revolutions per minute when the fish failed to maintain swimming in place): post exhaustion; for Immediate recovery 20 min later (water vortex revolutions per minute when the fish failed to maintain swimming in place): individual fish (8 per treatment), 20 minutes after application of the treatment
From the text: This study utilizes a well-recognized vessel plunger model system to determine fish exhaustion during maximal swim performance trials (Usui T, Noble […]. The French press: a repeatable and high-throughput approach to exercising zebrafish (Danio rerio). […] In brief, zebrafish is placed in the top compartment above plunger and evaluated for its ability to swim against circular water currents created by a rotating magnetic stir bar positioned below the plunger. […] Next, the fish is brought to the water surface with the aid of a plunger and the composition is administered to the fish using one of the possible methods of administration. The fish is lowered back into the top compartment, and the individual maximum swimming speed is determined again (post-exhaustion value). This experimental setup allows one to determine the highest tolerated continuous swimming speed associated with control, exhaustion and recovery conditions that models catching, fighting, landing, treating, and releasing fish. […] The experimental methodology was substantially similar to the methods discussed in Usui, et al. (2018). […] Each treatment was administered to eight Zebrafish (n=104 total fish). […] Initial swim strength was measured prior to exhaustion of the fish and subsequent administration of the selected treatment and therefore serves as a baseline. […] After the initial swim strength test, the fish swam to exhaustion (as defined in Usui, et al. […] As anticipated by the Applicant, even post-treatment the fish became exhausted at a lower rpm, but there were significant differences in when each treatment group began to tire.

## N=C(N)NCCC[C@H](N)C(=O)O [Arginine, arginine]
  Immediate recovery 20 min later, % Control (change from the control treatment as a percentage of the control treatment): 17%
  Immediate recovery 20 min later, Average: 484 rpm
  Immediate recovery 20 min later (water vortex revolutions per minute when the fish failed to maintain swimming in place): 520 rpm (2×) and 510 rpm and 550 rpm and 450 rpm and 580 rpm and 460 rpm and 280 rpm

## O=C(O)CN(CCN(CC(=O)O)CC(=O)O)CC(=O)O [EDTA, ethylenediaminetetraacetic acid]
  Immediate recovery 20 min later, % Control (change from the control treatment as a percentage of the control treatment): 8%
  Immediate recovery 20 min later, Average: 446 rpm
  Immediate recovery 20 min later (water vortex revolutions per minute when the fish failed to maintain swimming in place): 460 rpm (3×) and 430 rpm and 410 rpm (2×) and 420 rpm and 520 rpm

## CC(C)C[C@H](N)C(=O)O [Leucine, leucine]
  Immediate recovery 20 min later, % Control (change from the control treatment as a percentage of the control treatment): 10%
  Immediate recovery 20 min later, Average: 455 rpm
  Immediate recovery 20 min later (water vortex revolutions per minute when the fish failed to maintain swimming in place): 460 rpm and 400 rpm and 470 rpm (2×) and 510 rpm and 490 rpm and 390 rpm and 450 rpm

## C/C=C/C=C/C(=O)[O-].[K+] [Potassium sorbate, potassium sorbate]
  Immediate recovery 20 min later, % Control (change from the control treatment as a percentage of the control treatment): 5%
  Immediate recovery 20 min later, Average: 433 rpm
  Immediate recovery 20 min later (water vortex revolutions per minute when the fish failed to maintain swimming in place): 380 rpm and 420 rpm and 440 rpm and 460 rpm (2×) and 390 rpm and 500 rpm and 410 rpm

## CC(=O)C(=O)O [Pyruvate, pyruvate]
  Immediate recovery 20 min later, % Control (change from the control treatment as a percentage of the control treatment): 9%
  Immediate recovery 20 min later, Average: 451 rpm
  Immediate recovery 20 min later (water vortex revolutions per minute when the fish failed to maintain swimming in place): 420 rpm (2×) and 430 rpm and 450 rpm (2×) and 510 rpm and 520 rpm and 410 rpm

## O=C([O-])[O-].O=C([O-])[O-].OO.OO.OO.[Na+].[Na+].[Na+].[Na+] [Sodium percarbonate, sodium percarbonate]
  Immediate recovery 20 min later, % Control (change from the control treatment as a percentage of the control treatment): 24%
  Immediate recovery 20 min later, Average: 514 rpm
  Immediate recovery 20 min later (water vortex revolutions per minute when the fish failed to maintain swimming in place): 540 rpm (2×) and 500 rpm and 590 rpm and 530 rpm and 430 rpm and 520 rpm and 460 rpm

## salt
  Immediate recovery 20 min later, % Control (change from the control treatment as a percentage of the control treatment): 14%
  Immediate recovery 20 min later, Average: 471 rpm
  Immediate recovery 20 min later (water vortex revolutions per minute when the fish failed to maintain swimming in place): 410 rpm and 490 rpm (2×) and 510 rpm (2×) and 480 rpm (2×) and 400 rpm
